Assays:
[1] = test system: human Adenovirus 8 (hAdV8); assay: hAdV8 infection of organoid-derived conjunctival ALI cultures, viral titers by qPCR and cytopathic effects; type: cell-based; conditions: 17-day-old conjunctival ALI cultures, up to 96 hours; for reversal of adenoviral (hAdV8) infection: 10 μM Acyclovir, 60 μM Cidofovir or 20 μM Nelfinavir
Excerpt: Adenoviruses are the leading cause of viral conjunctivitis. Yet, to date, no medication is available, partly because there is no model system for this type of ocular infection. An hAdV8 strain, isolated from a patient was provided by Dr. Nobuyo Yawata and Dr. Makoto Yawata (Kyushu University, Japan and NUS, Singapore) (see Yawata, N., and Yawata, M. 2022. Assessing the Response of Human NK Cell Subsets to Infection by Clinically Isolated Virus Strains. Methods Mol Biol 2463, 205-220. https://doi.org/10.1007/978-1-0716-2160-8_15). hAdV8 was added to 17-day-old conjunctival ALI cultures (FIG. 6E). Conjunctival ALI cultures were readily infected by hAdV8, as confirmed by the viral titre measured by qPCR (not shown). CPEs were visible starting from 48 hours after infection: infected cells darkened and were extruded from the epithelium. We then tested several antiviral drugs experimentally applied for adenoviral conjunctivitis (Acyclovir, Cidofovir and Nelfinavir) to test their efficacy in blocking the infection.
Human organoids (5-7 days after split) were harvested, trypsinized to single cells using 0.25% Trypsin/EDTA (ThermoFisher Scientific) for 5 minutes and 100,000 cells were seeded in 100 μL human expansion medium on 6.5 mm-wide transwells (Corning or Greiner). Human expansion medium was added to the lower compartment. After 3 to 4 days, when cells had reached confluency, medium from the upper compartment was removed to lift the cultures to air-liquid interface (ALI). The ALI cultures were maintained up to 22 days. The medium in the bottom compartment was changed every 3-4 days.
An hAdV8 strain isolated from a patient was used. Similar to HSV1 infection, hAdV8 at MOI 10 was added to the ALI culture in 50 μL PBS for 3 hours, before being washed away. Every 24 hours, the shed viruses were collected in 100 μL PBS and stored until further processing. If indicated, 10 μM Acyclovir (PHR1254, Sigma-Aldrich), 60 μM Cidofovir (C5874, Sigma-Aldrich) or 20 μM Nelfinavir (PZ0013, Sigma-Aldrich) was added to the bottom compartment after incubating with the virus. hAdV8-infected ALI cultures were kept for up to 4 days and, if required, fixed.
At the time of processing of the pellets for organoids and supernatants for ALI cultures, DNA was extracted using Zymogen Quick-DNA Microprep kit (ZY-D3020, Zymogen). DNA was systematically resuspended in 15 μL nuclease-free water (QIAGEN). Viral DNA was then quantified by qPCR as follow: 5 μL of the DNA extract was mixed together with 5 μL of SYBR green (Bio-Rad) containing HSV1 detection primers (HSV1-F: […] (SEQ ID NO: 13) and HSV1-R: […] (SEQ ID NO: 14)) or hAdV8 detection primers (hAdV8-F: […] (SEQ ID NO: 15) and hAdV8-R: […] (SEQ ID NO: 16). The SYBR green was mixed with 10 μM primer mix at a ratio 10:1. Technical duplicates were assessed by qPCR. The following program was used for viral DNA amplification: 95° C. for 2 minutes, followed by 40 cycles of 98° C. for 15 seconds, 60° C. for 15 seconds and 72° C. for 15 seconds. For quantifying the viral DNA content in ALI supernatants, we amplified 179 bp of HSV1-tdTomato genome using HSV1-F and HSV1-R and 1004 bp of the hAdV8 genome using hAdV8-F and hAdV8-R. We cloned both in a pJet vector (Thermo Fisher Scientific) and used it to make a standard curve ranging from 2.104 to 2.109 copies of viral genome according to Addgene instructions (https://www.addgene.org/protocols/aav-titration-qpcr-using-sybr-green-technology/). […]

[2] = test system: Herpes Simplex Virus 1 (HSV1); assay: HSV1 infection of organoid-derived conjunctival ALI cultures, viral titers by qPCR; type: cell-based; conditions: 10 μM Acyclovir in bottom compartment after virus incubation; 17-day-old human conjunctival ALI cultures; followed 96 hours
Experimental: To model HSV1 infection, we exposed the apical surface of fully differentiated 17-day-old ALI cultures for 3 hours to an HSV1 strain whose capsid protein VP26 was tagged with tdTomato (hereafter called HSV1-tdTomato, FIG. 6A). HSV1 titrer increased by 5 logs over the course of 96 hours after initial incubation with HSV1, implying a productive infection of the conjunctival ALI culture with HSV1 (FIG. 6B). In addition, we observed that the tdTomato signal increased over time in HSV1-infected ALI cultures when imaged using an Auto-EVOS microscope (Thermo Fisher Scientific) (Data not shown). […] Acyclovir, an inhibitor of HSV1 DNA polymerase, is commonly given to patients with HSV1-induced conjunctivitis. Indeed, the infection was blocked when ALI cultures were treated with 10 μM Acyclovir (FIG. 6A-B). Thus, organoid-derived ALI cultures support HSV1 infection and represent a human ocular surface model for HSV1 infection.
Human organoids (5-7 days after split) were harvested, trypsinized to single cells using 0.25% Trypsin/EDTA (ThermoFisher Scientific) for 5 minutes and 100,000 cells were seeded in 100 μL human expansion medium on 6.5 mm-wide transwells (Corning or Greiner). […]
Herpes Simplex Virus 1 containing endogenously tagged […] capsid protein with tdTomato (HSV1-tdTomato) was used. […] Viral titer quantification was performed as indicated below. […]

For `Nc1ccn(C[C@@H](CO)OCP(=O)(O)O)c(=O)n1` [Cidofovir], the “reversal of adenoviral (hAdV8) infection” value [1] was “could reverse adenoviral infection”, the “cytopathic effects (CPEs) after hAdV8 infection” value ([1]; 60 μM Cidofovir) was “absence” and the “hAdV8 viral titre (qPCR)” value ([1]; 60 μM Cidofovir) was “decrease”.

For `Cc1c(O)cccc1C(=O)N[C@@H](CSc1ccccc1)[C@H](O)CN1C[C@H]2CCCC[C@H]2C[C@H]1C(=O)NC(C)(C)C` [Nelfinavir], the “reversal of adenoviral (hAdV8) infection” value [1] was “only Cidofovir could reverse adenoviral infection”.

For `Nc1nc2c(ncn2COCCO)c(=O)[nH]1` [Acyclovir], the “HSV1 infection (HSV1 titers detected by qPCR)” value [2] was “blocked” and the “reversal of adenoviral (hAdV8) infection” value [1] was “only Cidofovir could reverse adenoviral infection”.
